Source: ChEMBL document CHEMBL1148891, “New syntheses of tetrazolylmethylphenylalanine and O-malonyltyrosine as pTyr mimetics for the design of STAT3 dimerization inhibitors” (Bioorg Med Chem Lett, 2007)
Starred links: 1 amine or outer side, 2 acyl side, 3 side chain; linkers in the order of their positions; H or OH if unused. Non-standard residues stand in square brackets, D forms with d. Residues, ends and D or L forms follow the SMILES beside them. Phe(4-tetrazol-5-yl) = N[C@@H](Cc1ccc(-c2nnn[nH]2)cc1)C(=O)O; X1 = O=C([C@H](Cc1ccc(Cc2nn[nH]n2)cc1)N[*:1])[*:2]

Biological target: Signal transducer and activator of transcription 3 (Homo sapiens, UniProt P40763)
Experiment: Inhibition of STAT3 dimer DNA binding activity by ELISA after 30 mins

Sequence of Signal transducer and activator of transcription 3 (P40763 whole entry): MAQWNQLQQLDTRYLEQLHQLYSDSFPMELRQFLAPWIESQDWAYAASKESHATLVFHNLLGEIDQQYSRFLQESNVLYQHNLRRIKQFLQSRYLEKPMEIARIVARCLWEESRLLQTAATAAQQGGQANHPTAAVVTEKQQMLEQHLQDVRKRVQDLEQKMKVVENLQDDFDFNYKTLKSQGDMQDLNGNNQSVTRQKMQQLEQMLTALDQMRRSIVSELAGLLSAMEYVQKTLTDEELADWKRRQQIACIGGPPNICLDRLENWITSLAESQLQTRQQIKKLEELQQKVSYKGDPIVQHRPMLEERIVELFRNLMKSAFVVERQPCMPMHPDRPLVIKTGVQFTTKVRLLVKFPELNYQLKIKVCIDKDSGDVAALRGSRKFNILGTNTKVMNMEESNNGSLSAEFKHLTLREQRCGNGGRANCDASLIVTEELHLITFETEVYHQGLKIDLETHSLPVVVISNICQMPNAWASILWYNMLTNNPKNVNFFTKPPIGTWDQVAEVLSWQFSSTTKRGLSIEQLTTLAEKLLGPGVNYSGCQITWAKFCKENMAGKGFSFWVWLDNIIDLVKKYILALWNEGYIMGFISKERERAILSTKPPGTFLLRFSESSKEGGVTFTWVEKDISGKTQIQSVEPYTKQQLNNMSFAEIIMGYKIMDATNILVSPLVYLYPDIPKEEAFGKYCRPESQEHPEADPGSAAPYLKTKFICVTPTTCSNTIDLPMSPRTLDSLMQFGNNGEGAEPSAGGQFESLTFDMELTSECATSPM

SMILES	IC50
CC(=O)N[C@@H](Cc1ccc(-c2nnn[nH]2)cc1)C(=O)N[C@@H](CC(C)C)C(=O)N1CCC[C@H]1C(=O)N[C@@H](CCC(N)=O)C(=O)N[C@H](C(=O)N[C@H](C(=O)O)C(C)C)[C@@H](C)O (Ac-[Phe(4-tetrazol-5-yl)]LPQTV-OH)	> 0.8 µM
CC(=O)N[C@@H](Cc1ccc(Cc2nn[nH]n2)cc1)C(=O)N[C@@H](CC(C)C)C(=O)N1CCC[C@H]1C(=O)N[C@@H](CCC(N)=O)C(=O)N[C@H](C(=O)N[C@H](C(=O)O)C(C)C)[C@@H](C)O (Ac-[X1]LPQTV-OH)	> 1 µM
